According to patent US6335350B1, “Acetamide and substituted acetamide-containing thiourea inhibitors of herpes viruses” (American Home Products Corporation, priority 1998, dated 2002):
Converted amounts (≈) assume the structure as drawn.

How the values were obtained:
[1] = tested on: HCMV wild-type; assay: HCMV yield assay; assay type: cell-based, human cytomegalovirus; settings: human foreskin fibroblasts; for IC50: Human betaherpesvirus 5, Fibroblast, read-out: IC50 Ug/ml HCMV
Description: Yield assay. Monolayer cultures of human foreskin fibroblasts are infected with HCMV wild-type, typically at a multiplicity of infection equal to 0.2, in the presence of inhibitor compound (varying concentrations). At three days post-infection, total virus produced in these cultures (i.e. virus yield) is assessed by harvesting and titering the virus in 12-well plates of cultured human foreskin fibroblasts (done in the absence of inhibitor). Plaques are quantified at 2 weeks post-infection. An inhibitor of HCMV is identified by the reduction in titer of virus yield in the presence, compared to the titer in the absence of compound. In this assay, the relative anti-HCMV activity of an inhibitor is typically determined by calculating the IC50 or IC90 value, that is, the amount of compound required to reduce the virus yield by 50% or 90%, respectively. Table I describes IC50 data for compounds tested against HCMV.

[2] = tested on: VZV strain Ellen; assay: VZV Antiviral (ELISA) Assay; assay type: cell-based, varicella-zoster virus; settings: human foreskin fibroblast cells; for IC50 / inhibition at 10 µg/mL: Human alphaherpesvirus 3, Fibroblast; for IC50: read-out: IC50 Ug/ml VZV; for inhibition at 10 µg/mL: read-out: % inhibition 10 ug/ml VZV, 10 ug/ml
Description: For the generation of stock VZV to be used in the assay, VZV strain Ellen (ATCC #VR-1367) is used to infect human foreskin fibroblast (HFF) cells at low multiplicity (less than 0.1) and incubated overnight at 37° C. in 5% CO2. After the overnight incubation, the mixture of uninfected and VZV-infected HFF infected cells are then harvested and added to each well of 96-well plates (3.5×10^4 cells in 100 μl DMEM supplemented with 2% FBS) which contain test compound or the reference standard drug control (in 100 μl DMEM supplemented with 2% FBS per well). These cells are incubated for three days at 37° C. in 5% CO2, then fixed for ELISA assay. The primary antibody is murine anti-VZV glycoprotein II monoclonal antibody (Applied Biosystems, Inc. #13-145-100) and the secondary antibody is goat anti-mouse IgG linked to β-galactosidase. Thus the extent of viral replication is determined by assessing β-galactosidase activity by quantifying the generation of the 4-methyl umbelliferone fluorescent cleavage product after addition of the methyl umbelliferyl-β-D-galactoside (Sigma #M1633) substrate on a microfluorimeter (365 nm for excitation and 450 nm for emission). Antiviral activity (IC50) of the test compound is determined by comparing the flourescence obtained in absence of compound to that obtained in the presence of compound.

[3] = tested on: HSV-1; assay: HSV Antiviral (ELISA) Assay; assay type: cell-based, herpes simplex virus type 1; settings: Vero cells, HSV-1; for IC50: Human alphaherpesvirus 1, Vero, read-out: IC50 Ug/ml HSV
Description: Vero cells (ATCC #CCL-81) are plated on 96-well tissue culture plates at 3.5×10^4 cells per 100 μl tissue culture DMEM (Dulbecco's modified Eagle media) supplemented with 2% fetal bovine serum (FBS) in each well. After overnight incubation @ 37° C. (in 5% CO2) and 30 minutes prior to infection with HSV-1 (multiplicity of infection equal to 0.006), cells are either untreated, or treated with test compound (multiple concentrations) or reference standard drug control. After approximately 24 hours post-infection incubation @ 37° C. (in 5% CO2), cells are fixed for ELISA assay. The primary antibody is murine anti-HSV glycoprotein D monoclonal primary antibody and the secondary antibody is goat anti-mouse IgG linked to β-galactosidase. Thus the extent of viral replication is determined by assessing β-galactosidase activity by quantifying the generation of the 4-methyl umbelliferone fluorescent cleavage product after addition of the methyl umbelliferyl-β-D-galactoside (Sigma #M1633) substrate on a microfluorimeter (365 nm for excitation and 450 nm for emission). Antiviral activity (IC50) of the test compound is determined by comparing the flourescence obtained in absence of compound to that obtained in the presence of compound.

Row | IC50 Ug/ml HSV [3] | IC50 [3] | Structure (SMILES) | IC50 Ug/ml HCMV [1] | % inhibition 10 ug/ml VZV [2] | IC50 Ug/ml VZV [2] | IC50 [1] | IC50 [2] | inhibition at 10 µg/mL [2]
1 | 2 Ug/ml |  | COc1c(NC(=S)Nc2ccc(NC(C)=O)cc2)cc(Cl)c(C)c1Cl [Example 152, N-{4-[3-(3,5-Dichloro-2-methoxy-4-methyl-phenyl)-thioureido]-phenyl}-acetamide] | 0.8 Ug/ml | 70% | 7.5 Ug/ml |  |  | 
2 |  | > 50 µg/mL | CCOc1c(Cl)cc(NC(=S)Nc2ccc(NC(C)=O)cc2)cc1Cl [Example 176, N-{4-[3-(3,5-Dichloro-4-ethoxy-phenyl)-thioureido]-phenyl}-acetamide] |  |  |  | 0.5 µg/mL (≈ 1.26 µM) | > 10 µg/mL | 24%
3 |  | > 50 µg/mL | CC(=O)Nc1ccc(NC(=S)Nc2cc(Cl)c(OCc3ccccc3)c(Cl)c2)cc1 [Example 178, N-{4-[3-(4-Benzyloxy-3,5-dichloro-phenyl)-thioureido]-phenyl}-acetamide] |  |  |  | > 10 µg/mL | > 10 µg/mL | 32%
4 |  | 5 µg/mL (≈ 13.2 µM) | COc1ccc(NC(=S)Nc2ccc(NC(C)=O)cc2)c(OC)c1Cl [Example 179, N-{4-[3-(3-Chloro-2,4-dimethoxy-phenyl)-thioureido]-phenyl}-acetamide] |  |  |  | > 50 µg/mL | > 10 µg/mL | 35%
5 |  | 6 µg/mL (≈ 12.7 µM) | COc1cc(OC)c(NC(=S)Nc2ccc(NC(C)=O)cc2)cc1I [Example 197, N-{4-[3-(5-Iodo-2,4-dimethoxy-phenyl)-thioureido]-phenyl}-acetamide] |  |  |  | > 10 µg/mL | > 15 µg/mL | 59%
6 |  | 9 µg/mL (≈ 24.8 µM) | COc1cc(OC)c(NC(=S)Nc2ccc(NC(C)=O)cc2)cc1F [Example 198, N-{4-[3-(5-Fluoro-2,4-dimethoxy-phenyl)-thioureido]-phenyl}-acetamide] |  |  |  | > 50 µg/mL | > 10 µg/mL | 36%
7 |  | 1.2 µg/mL (≈ 3.3 µM) | COc1cc(C)c(Cl)cc1NC(=S)Nc1ccc(NC(C)=O)cc1 [Example 199, N-{4-[3-(5-Chloro-2-methoxy-4-methyl-phenyl)-thioureido]-phenyl}-acetamide] |  |  |  | > 10 µg/mL | > 15 µg/mL | 60%
8 |  | 3 µg/mL (≈ 7.67 µM) | CCN(CC)c1ccc(NC(=S)Nc2ccc(NC(C)=O)cc2)cc1Cl [Example 202, N-{4-[3-(3-Chloro-4-diethylamino-phenyl)-thioureido]-phenyl}-acetamide] |  |  |  | > 10 µg/mL | > 10 µg/mL | 18%
9 | >10 Ug/ml |  | CC(=O)Nc1ccc(NC(=S)Nc2ccc(N(C)C3CCCCC3)c(Cl)c2)cc1 [Example 203] | 2 Ug/ml | 22% | >10 Ug/ml |  |  | 
10 |  | > 50 µg/mL | CC(=O)Nc1ccc(NC(=S)Nc2ccc(N3CCOCC3)c(Cl)c2)cc1 [Example 205, N-{4-[3-(3-Chloro-4-morpholin-4-yl-phenyl)-thioureido]-phenyl}-acetamide] |  |  |  | 20 µg/mL (≈ 49.4 µM) | > 10 µg/mL | 30%
11 |  | > 50 µg/mL | COc1cc(OCC#N)c(Cl)cc1NC(=S)Nc1ccc(NC(C)=O)cc1 [Example 212, N-(4-{3-[5-Chloro-2-methoxy-4-(2-nitrilo-ethoxy)-phenyl]-thioureido}-phenyl)-acetamide] |  |  |  | 20 µg/mL (≈ 49.4 µM) | > 10 µg/mL | 23%
12 |  | 30 µg/mL (≈ 74.1 µM) | COc1cc(OCC#N)c(NC(=S)Nc2ccc(NC(C)=O)cc2)cc1Cl [Example 213, N-(4-{3-[5-Chloro-4-methoxy-2-(2-nitrilo-ethoxy)-phenyl]-thioureido}-phenyl)-acetamide] |  |  |  | 15 µg/mL (≈ 37 µM) | > 10 µg/mL | 20%
13 |  | 20 µg/mL (≈ 48.8 µM) | COc1cc(OCCO)c(NC(=S)Nc2ccc(NC(C)=O)cc2)cc1Cl [Example 214, N-(4-{3-[5-Chloro-2-(2-hydroxy-ethoxy)-4-methoxy-phenyl]-thioureido}-phenyl)-acetamide] |  |  |  | > 10 µg/mL | > 10 µg/mL | 20%
14 |  | > 50 µg/mL | COc1cc(OCCO)c(Cl)cc1NC(=S)Nc1ccc(NC(C)=O)cc1 [Example 215, N-(4-{3-[5-Chloro-4-(2-hydroxy-ethoxy)-2-methoxy-phenyl]-thioureido}-phenyl)-acetamide] |  |  |  | > 10 µg/mL | > 10 µg/mL | 30%
15 |  | 35 µg/mL (≈ 72.9 µM) | COc1cc(OCC(=O)OC(C)(C)C)c(Cl)cc1NC(=S)Nc1ccc(NC(C)=O)cc1 [Example 216, {4-[3-(4-Acetylamino-phenyl)-thioureido]-2-chloro-5-methoxy-phenoxy}-acetic acid tert-butyl ester] |  |  |  | > 10 µg/mL | > 10 µg/mL | 23%
16 |  | > 50 µg/mL | COC(=O)COc1cc(OC)c(NC(=S)Nc2ccc(NC(C)=O)cc2)cc1Cl [Example 217, {4-[3-(4-Acetylamino-phenyl)-thioureido]-2-chloro-5-methoxy-phenoxy}-acetic acid methyl ester] |  |  |  | > 10 µg/mL | > 10 µg/mL | 10%
17 |  | 15 µg/mL (≈ 31.3 µM) | COc1cc(OCC(=O)OC(C)(C)C)c(NC(=S)Nc2ccc(NC(C)=O)cc2)cc1Cl [Example 218, {2-[3-(4-Acetylamino-phenyl)-thioureido]-4-chloro-5-methoxy-phenoxy}-acetic acid tert-butyl ester] |  |  |  | > 10 µg/mL | > 10 µg/mL | 18%
18 |  | 14 µg/mL (≈ 38.3 µM) | COc1cc(O)c(Cl)cc1NC(=S)Nc1ccc(NC(C)=O)cc1 [Example 223, N-{4-[3-(5-Chloro-4-hydroxy-2-methoxy-phenyl)-thioureido]-phenyl}-acetamide] |  |  |  | > 50 µg/mL | > 10 µg/mL | 24%
19 |  | > 50 µg/mL | COc1cc(N2CCOCC2)c(NC(=S)Nc2ccc(NC(C)=O)cc2)cc1Cl [Example 226, N-{4-[3-(5-Chloro-4-methoxy-2-morpholin-4-yl-phenyl)-thioureido]-phenyl}-Acetamide] |  |  |  | > 50 µg/mL | > 10 µg/mL | 35%
20 |  | > 50 µg/mL | COc1cc(N(C)C)c(NC(=S)Nc2ccc(NC(C)=O)cc2)cc1Cl [Example 227, N-{4-[3-(5-Chloro-2-dimethylamino-4-methoxy-phenyl)-thioureido]-phenyl}-acetamide] |  |  |  | > 50 µg/mL | > 10 µg/mL | 32%
21 |  | 3 µg/mL (≈ 7.16 µM) | COc1cc(N2CCCC2)c(NC(=S)Nc2ccc(NC(C)=O)cc2)cc1Cl [Example 228, N-{4-[3-(5-Chloro-4-methoxy-2-pyrrolidin-1-yl-phenyl)-thioureido]-phenyl}-acetamide] |  |  |  | > 10 µg/mL | > 10 µg/mL | 35%
22 |  | 15 µg/mL (≈ 34.6 µM) | COc1cc(N2CCCCC2)c(NC(=S)Nc2ccc(NC(C)=O)cc2)cc1Cl [Example 229, N-{4-[3-(5-Chloro-4-methoxy-2-piperidin-1-yl-phenyl)-thioureido]-phenyl}-acetamide] |  |  |  | 7 µg/mL (≈ 16.2 µM) | > 10 µg/mL | 35%

Row | Structure (SMILES) | IC50 Ug/ml HSV [3] | IC50 [3] | IC50 Ug/ml HCMV [1] | % inhibition 10 ug/ml VZV [2] | IC50 Ug/ml VZV [2] | IC50 [1] | IC50 [2] | inhibition at 10 µg/mL [2]
23 | CCCCOc1c(Cl)cc(NC(=S)Nc2ccc(NC(C)=O)cc2)cc1Cl [Example 177, N-{4-[3-(4-Butoxy-3,5-dichloro-phenyl)-thioureido]-phenyl}-acetamide] |  | > 50 µg/mL |  |  |  | 3.5 µg/mL (≈ 8.21 µM) | > 10 µg/mL | 19%
24 | COc1cc(OCCCC#N)c(Cl)cc1NC(=S)Nc1ccc(NC(C)=O)cc1 [Example 211, N-(4-{3-[5-Chloro-2-methoxy-4-(4-nitrilo-butoxy)-phenyl]-thioureido}-phenyl)-acetamide] |  | 30 µg/mL (≈ 69.3 µM) |  |  |  | > 10 µg/mL | > 10 µg/mL | 35%
